Laboratory results taken from patent publication US6608082B1, “Treatment of erectile dysfunction using isoquinoline compound melanocortin receptor ligands” (Lion Bioscience AG, priority 1998, dated 2003).
Where two headings read alike, the source gives them in different places. Each block holds one compound with its values, some of them ahead of it.

Tests used:
MCR-4 = molecular target: T1, MCR-4 (Homo sapiens, UniProt P32245); assay: Melanocortin receptor binding assay, competition with 125I-HP 467, HEK 293 cells expressing hMCR-4; details: for IC50: read-out: MC-4 IC50
T1 construct: expressed in transfected cells; host or cells: HEK 293
T1 sequence (P32245 whole entry): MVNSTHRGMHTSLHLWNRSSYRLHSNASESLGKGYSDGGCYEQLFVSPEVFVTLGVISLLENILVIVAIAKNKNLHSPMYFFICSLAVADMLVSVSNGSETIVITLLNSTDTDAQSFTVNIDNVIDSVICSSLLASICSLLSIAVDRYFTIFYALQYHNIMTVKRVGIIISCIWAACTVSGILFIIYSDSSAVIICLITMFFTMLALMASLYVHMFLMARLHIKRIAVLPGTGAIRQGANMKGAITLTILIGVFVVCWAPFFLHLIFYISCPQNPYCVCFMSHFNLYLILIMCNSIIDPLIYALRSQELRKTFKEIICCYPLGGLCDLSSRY
Outline: (§1)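 Test compounds compete on intact HEK 293 cells carrying hMCR-1 (2×10^4 per tube) or hMCR-4 (4×10^3 per tube), suspended in PBS, 10% calf serum, 1 mM CaCl2.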

MCR-1 = molecular target: T2, MCR-1 (Homo sapiens, UniProt Q01726); assay: Melanocortin receptor binding assay, competition with 125I-HP 467, HEK 293 cells expressing hMCR-1; details: for IC50: read-out: MC-1 IC50; for % Disp. MC-1 10 μM: displacement of 125I-HP 467 at 10 μM isoquinoline compound
T2 construct: expressed in transfected cells; host or cells: HEK 293
T2 sequence (Q01726 whole entry): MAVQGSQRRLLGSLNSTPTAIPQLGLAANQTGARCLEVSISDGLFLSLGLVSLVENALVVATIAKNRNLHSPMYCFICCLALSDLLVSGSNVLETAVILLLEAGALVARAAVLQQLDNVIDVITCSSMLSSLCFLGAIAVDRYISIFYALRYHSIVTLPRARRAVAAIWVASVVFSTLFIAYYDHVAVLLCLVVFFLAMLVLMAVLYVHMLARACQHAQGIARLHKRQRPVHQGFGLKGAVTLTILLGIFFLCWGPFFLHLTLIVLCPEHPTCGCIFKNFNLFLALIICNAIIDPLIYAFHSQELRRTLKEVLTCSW
Outline: as §1

[1] = TRG 2414 library, inhibition of binding of 125I-HP 467, HEK 293 cells expressing MCR-4
[2] = TRG 2414 library, inhibition of binding of 125I-HP 467, HEK 293 cells expressing MCR-1
[3] = inhibition of binding of 125I-HP 467, HEK 293 cells expressing MCR-4, TRG 2414 library
[4] = inhibition of binding of 125I-HP 467, HEK 293 cells expressing MCR-1, TRG 2414 library
[5] = inhibition of binding of 125I-HP 467, HEK 293 cells expressing MCR-4
[6] = inhibition of binding of 125I-HP 467, HEK 293 cells expressing MCR-1
[7] = TRG 2408 and TRG 2409 libraries, inhibition of 125I-HP 467 binding
[8] = competition with 125I-HP 467, HEK 293 cells expressing MCR-4
[9] = competition with 125I-HP 467, HEK 293 cells expressing MCR-1
[10] = TRG 2406 and TRG 2407 libraries, inhibition of binding of 125I-HP 467

SMILES: CCCOc1ccc(C2C(CNC3CCCCC3)c3ccccc3CN2CCCCC(CN)NCc2ccccc2)cc1 (stereo not shown) [Cmpd 199]
IC50 (MCR-4; [1]): 5.15 µM
IC50 (MCR-1; [2]): 1.29 µM

SMILES: COc1cccc(CNCC2c3ccccc3CN(CCCCC(CN)NCCc3ccccc3)C2c2cc(C(F)(F)F)cc(C(F)(F)F)c2)c1 (stereo not shown) [TRG 2414-58]
IC50 (MCR-4; [3]): 3.45 µM
IC50 (MCR-1; [4]): 6.72 µM

SMILES: CCOc1ccc(CCNCC2c3ccccc3CN(CCCCC(CN)NCc3ccc(OC)cc3)C2c2cccc(C(F)(F)F)c2)cc1 (stereo not shown) [TRG 2421-46]
IC50 (MCR-4; [5]): 3.61 µM
IC50 (MCR-1; [6]): 1.58 µM

SMILES: CCNc1ccc(C2C(CNC3CCCCC3)c3ccccc3CN2CCCC(CN)NCCN)cc1 (stereo not shown) [TRG 2408-63]
IC50 (MCR-4; [7]): 18.7 µM
IC50 (MCR-1; [7]): 0.69 µM

SMILES: NCC(CCCCN1Cc2ccccc2C(CNCc2ccccc2)C1c1cc(C(F)(F)F)cc(C(F)(F)F)c1)NCCc1ccccc1 (stereo not shown) [TRG 2414-70]
IC50 (MCR-4; [3]): 9.29 µM
IC50 (MCR-1; [4]): 18.3 µM

SMILES: CCNc1ccc(C2C(CNCCc3ccccc3)c3ccccc3CN2CCC[C@@H](CN)NCCOCCN(CC)CC)cc1 (stereo partly shown) [TRG 2420-11]
IC50 (MCR-4; [5]): 4.63 µM
IC50 (MCR-1; [6]): 0.028 µM

SMILES: COc1ccc(CCNCC2c3ccccc3CN(CCCCC(CN)NCc3ccc(Br)cc3)C2c2cc(C(F)(F)F)cc(C(F)(F)F)c2)cc1OC (stereo not shown) [TRG 2421-18]
IC50 (MCR-4; [5]): 1.35 µM
IC50 (MCR-1; [6]): 4.79 µM

SMILES: Cc1ccc(CNC(CN)CCCCN2Cc3ccccc3C(CNCCc3ccc(O)cc3)C2c2cc(C(F)(F)F)cc(C(F)(F)F)c2)cc1 (stereo not shown) [TRG 2421-7]
IC50 (MCR-4; [5]): 4.53 µM
IC50 (MCR-1; [6]): 3.19 µM

SMILES: CCOc1ccc(CCNCC2c3ccccc3CN(CCCCC(CN)NCc3ccc(OC)cc3)C2c2cc(C(F)(F)F)cc(C(F)(F)F)c2)cc1 (stereo not shown) [TRG 2421-24]
IC50 (MCR-4; [5]): 2.26 µM
IC50 (MCR-1; [6]): 2.35 µM

SMILES: NCC(CCCCN1Cc2ccccc2C(CNC2CCCCC2)C1c1ccc(-c2ccccc2)cc1)NCCc1ccccc1 (stereo not shown) [TRG 2408-22]
IC50 (MCR-4; [7]): 11.4 µM
IC50 (MCR-1; [7]): 2.77 µM

SMILES: CCNc1ccc(C2C(CNCCc3ccccc3)c3ccccc3CN2CCCC(CN)NCCCCCNC(C)C)cc1 (stereo not shown) [TRG 2420-1]
IC50 (MCR-4; [5]): 1.5 µM
IC50 (MCR-1; [6]): 0.046 µM

SMILES: CCCCNC(CN)CCCCN1Cc2ccccc2C(CN)C1c1ccc(-c2ccccc2)cc1 (stereo not shown) [TRG 2411-33]
IC50 (MCR-4; [8]): 1.73 µM
IC50 (MCR-1; [9]): 0.39 µM

SMILES: COc1ccc(CNC(CN)CCCCN2Cc3ccccc3C(CNCCc3cccc(OC)c3)C2c2cc(C(F)(F)F)cc(C(F)(F)F)c2)cc1 (stereo not shown) [TRG 2421-39]
IC50 (MCR-4; [5]): 1.04 µM
IC50 (MCR-1; [6]): 3.3 µM

SMILES: CCNc1ccc(C2C(CNCc3ccccc3OC)c3ccccc3CN2CCC(CN)NCCN)cc1 (stereo not shown) [TRG 2408-89]
IC50 (MCR-4; [7]): 21.7 µM
IC50 (MCR-1; [7]): 1.82 µM

SMILES: CCCCNc1ccc(C2C(CN)c3ccccc3CN2CCCCC(CN)NCc2ccc(OC)cc2)cc1 (stereo not shown) [TRG 2411-109]
IC50 (MCR-4; [8]): 1.4 µM
IC50 (MCR-1; [9]): 0.1 µM

SMILES: CCNc1ccc(C2C(CNC3CCCCC3)c3ccccc3CN2CCCCC(CN)NCCc2ccccc2)cc1 (stereo not shown) [TRG 2408-32]
IC50 (MCR-4; [7]): 9.44 µM
IC50 (MCR-1; [7]): 1.15 µM

SMILES: CCNc1ccc(C2C(CNCCc3ccccc3)c3ccccc3CN2CCCC(CN)NCC2CC2CNC(C)C)cc1 (stereo not shown) [TRG 2420-5]
IC50 (MCR-4; [5]): 9.88 µM
IC50 (MCR-1; [6]): 0.043 µM

SMILES: COc1ccc(CNC(CN)CCCCN2Cc3ccccc3C(CNCCc3cccc(OC)c3)C2c2cccc(C(F)(F)F)c2)cc1 (stereo not shown) [TRG 2421-48]
IC50 (MCR-4; [5]): 0.95 µM
IC50 (MCR-1; [6]): 1.74 µM

SMILES: CCNc1ccc(C2C(CNCCc3ccccc3)c3ccccc3CN2CCCC(CN)NCCc2ccc(OC)cc2)cc1 (stereo not shown) [TRG 2411-157]
IC50 (MCR-4; [5]): 0.67 µM
IC50 (MCR-1; [6]): 0.11 µM

SMILES: CNC(CN)CCCCN1Cc2ccccc2C(CNCc2ccccc2O)C1c1cccc(Oc2ccc(Cl)c(Cl)c2)c1 (mixture of isomers) [TRG 2406-4]
IC50 (MCR-4; [10]): 3.78 µM
IC50 (MCR-1; [10]): 1.72 µM

SMILES: CCNc1ccc(C2C(CNCCc3ccccc3)c3ccccc3CN2CCCC(CN)NCCCCN(CC)CC)cc1 (stereo not shown) [TRG 2419-4]
IC50 (MCR-4; [5]): 14.4 µM
IC50 (MCR-1; [6]): 0.058 µM

Continued, values first:

IC50 (MCR-4; TRG 2405 section, inhibition of binding of 125I-HP 467, HEK 293 cells expressing MCR-4): 11.2 µM
IC50 (MCR-1; TRG 2405 section, inhibition of binding of 125I-HP 467, HEK 293 cells expressing MCR-1): 12.2 µM
% Disp. MC-1 10 μM (MCR-1; first of duplicate): 54.2%
% Disp. MC-1 10 μM (MCR-1; second of duplicate): 59.6%
SMILES: CNC(CN)CN1Cc2ccccc2C(CNC2CCCCC2)C1c1ccc(Cl)cc1Cl (stereo not shown) [TRG 2405-100]

IC50 (MCR-4; [1]): 4.43 µM
IC50 (MCR-1; [2]): 3.7 µM
SMILES: COc1ccccc1CCNCC1c2ccccc2CN(CCCCC(CN)NCCc2ccccc2)C1c1ccccc1Br (stereo not shown) [Cmpd 210]

IC50 (MCR-4; [5]): 2.97 µM
IC50 (MCR-1; [6]): 0.1 µM
SMILES: CCCCNc1ccc(C2C(CN)c3ccccc3CN2CCCC(CN)NCCCC)cc1 (stereo not shown) [TRG 2411-219]

IC50 (MCR-4; [3]): 5.26 µM
IC50 (MCR-1; [4]): 8.66 µM
SMILES: NCC(CCCCN1Cc2ccccc2C(CNCCc2cccc(Cl)c2)C1c1cccc(Oc2ccccc2)c1)NCc1ccccc1 (stereo not shown) [TRG 2414-95]

IC50 (MCR-4; [8]): 1.19 µM
IC50 (MCR-1; [9]): 0.92 µM
SMILES: CCNc1ccc(C2C(CNC3CCCCC3)c3ccccc3CN2CCCCC(CN)NCCc2ccc3ccccc3c2)cc1 (stereo not shown) [TRG 2411-57]

IC50 (MCR-4; [8]): 17.4 µM
IC50 (MCR-1; [9]): 1.15 µM
SMILES: CNC(CN)CCCCN1Cc2ccccc2C(CNC2CCCCC2)C1c1ccc(NCc2ccccc2)cc1 (stereo not shown) [TRG 2409-13]

MC-4 IC50 (MCR-4; [3]): no fit
IC50 (MCR-1; [4]): 18.6 µM
SMILES: CC(C)Cc1ccc(C(C)CNC(CN)CCCCN2Cc3ccccc3C(CNC3CCCCCC3)C2c2ccc(Oc3ccccc3)cc2)cc1 (stereo not shown) [TRG 2414-156]

MC-4 IC50 (MCR-4; [3]): no fit
MC-1 IC50 (MCR-1; [4]): no fit
SMILES: COc1ccc(CCNCC2c3ccccc3CN(CCCCC(CN)NCC(C)c3ccc(CC(C)C)cc3)C2c2ccc(Oc3ccccc3)cc2)cc1 (stereo not shown) [TRG 2414-148]

IC50 (MCR-4; [5]): 1.43 µM
IC50 (MCR-1; [6]): 0.07 µM
SMILES: CCNc1ccc(C2C(CN)c3ccccc3CN2CCCC(CN)NCCc2ccccc2)cc1 (stereo not shown) [TRG 2411-179]

IC50 (MCR-4; [3]): 2.16 µM
IC50 (MCR-1; [4]): 6.45 µM
SMILES: COc1ccccc1CCNCC1c2ccccc2CN(CCCCC(CN)NCc2ccccc2)C1c1cc(C(F)(F)F)cc(C(F)(F)F)c1 (stereo not shown) [TRG 2414-51]

IC50 (MCR-4; [8]): 1.49 µM
IC50 (MCR-1; [9]): 0.22 µM
SMILES: CCCCNc1ccc(C2C(CNCCc3ccccc3)c3ccccc3CN2CCCCC(CN)NCCc2ccccc2)cc1 (stereo not shown) [TRG 2411-77]

IC50 (MCR-4; [3]): 4.8 µM
IC50 (MCR-1; [4]): 1.1 µM
SMILES: CCCOc1ccc(C2C(CNCCc3ccccc3OC)c3ccccc3CN2CCCCC(CN)NCc2ccccc2)cc1 (stereo not shown) [TRG 2414-171]

IC50 (MCR-4; [3]): 0.52 µM
IC50 (MCR-1; [4]): 1.39 µM
SMILES: COc1ccc(CCNCC2c3ccccc3CN(CCCC[C@H](N)CN)C2c2ccc(Cl)cc2Cl)cc1 (stereo partly shown) [TRG 2414-25]

IC50 (MCR-4; [7]): 17.4 µM
IC50 (MCR-1; [7]): 1.73 µM
SMILES: NCC(N)CCCCN1Cc2ccccc2C(CNC2CCCCC2)C1c1ccc(-c2ccccc2)cc1 (stereo not shown) [TRG 2408-21]

IC50 (MCR-4; [10]): 10.8 µM
IC50 (MCR-1; [10]): 4.48 µM
SMILES: CCNc1ccc(C2C(CNc3ccc(Cl)cc3)c3ccccc3CN2CCCCC(CN)NC)cc1 (stereo not shown) [TRG 2407-48]

IC50 (MCR-4; [3]): 3.8 µM
IC50 (MCR-1; [4]): 6.3 µM
SMILES: NCC(N)CCCCN1Cc2ccccc2C(CNCCc2cccc(Cl)c2)C1c1cccc(Oc2ccccc2)c1 (stereo not shown) [TRG 2414-93]

IC50 (MCR-4; [3]): 4.11 µM
IC50 (MCR-1; [4]): 1.11 µM
SMILES: NCC(N)CCCCN1Cc2ccccc2C(CNC2CCCCC2)C1c1ccc(Oc2ccccc2)cc1 (stereo not shown) [TRG 2414-157]

IC50 (MCR-4; [7]): 28.1 µM
IC50 (MCR-1; [7]): 9.94 µM
SMILES: CCNc1ccc(C2C(CNC3CCCCC3)c3ccccc3CN2CCC(N)CN)cc1 (stereo not shown) [TRG 2408-91]

IC50 (MCR-4; [3]): 18.4 µM
IC50 (MCR-1; [4]): 19.1 µM
SMILES: CCCOc1ccc(C2C(CNCc3ccccc3C(F)(F)F)c3ccccc3CN2CCCCC(CN)NCCc2ccccc2)cc1 (mixture of isomers) [TRG 2414-162]

IC50 (MCR-4; [5]): 1.06 µM
IC50 (MCR-1; [6]): 0.16 µM
SMILES: CCCCOc1ccc(C2C(CNCCc3ccccc3)c3ccccc3CN2CCCC(CN)NC)cc1 (stereo not shown) [TRG 2412-25]

MC-4 IC50 (MCR-4; [1]): no fit
MC-1 IC50 (MCR-1; [2]): no fit
SMILES: CCCOc1ccc(C2C(CNCc3ccc(OC)cc3)c3ccccc3CN2CCCCC(N)CN)cc1 (stereo not shown) [Cmpd 283]

MC-4 IC50 (MCR-4; [1]): no fit
MC-1 IC50 (MCR-1; [2]): no fit
SMILES: COc1ccc(CNCC2c3ccccc3CN(CCCCC(N)CN)C2c2ccc(Oc3ccccc3)cc2)cc1 (stereo not shown) [Cmpd 271]
